Data published in PMC11249646, “Small-Molecule Disruptors of the Interaction between Calcium- and Integrin-Binding Protein 1 and Integrin αIIbβ3 as Novel Antiplatelet Agents” (ACS Pharmacology & Translational Science, 2024).
Like-named read-outs stand apart in the source and are kept apart here.

Experiments:
[1] = molecular target: T1, CIB1 and αIIb interaction (CIB1-GST : F-αIIb peptide) (Homo sapiens, UniProt Q99828); assay: FP assay, 1536-well qHTS format (primary and confirmatory screen); assay type: binding
T1 construct: made in house; host or cells: BL-21 plus RIL cells (E. coli)
T1 sequence (Q99828 1-191): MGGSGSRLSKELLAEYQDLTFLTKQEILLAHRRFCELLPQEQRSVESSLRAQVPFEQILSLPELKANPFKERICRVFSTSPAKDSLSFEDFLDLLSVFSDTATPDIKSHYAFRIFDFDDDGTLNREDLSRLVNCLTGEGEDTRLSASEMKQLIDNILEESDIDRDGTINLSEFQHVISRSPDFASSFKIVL

[2] = molecular target: T2, GST-CIB1 : F-scrambled peptide (Homo sapiens, UniProt Q99828); assay: FP scrambled-peptide counter screen, 1536-well format; assay type: binding; conditions: for Confirm? (counterscreen): YES/NO call; for IC50: read-out: IC50 [μM] (counterscreen)
T2 construct: made in house; host or cells: BL-21 plus RIL cells (E. coli)
T2 sequence (Q99828 1-191): T1 sequence (Q99828 1-191)

[3] = Table S3, confirmatory screen, qHTS curve class, a negative sign marks inhibitory curves
[4] = Table S3, confirmatory screen, negative = inhibition
[5] = qHTS primary screen hits, Table S2, negative = inhibition
[6] = qHTS primary screen hits, Table S2, negative sign = inhibitory curve, several classes where COUNT > 1
[7] = qHTS primary screen hits, Table S2, read-out: IC50
[8] = Table S3, counterscreen, qHTS curve class, a negative sign marks inhibitory curves
[9] = Table S3, counterscreen, negative = inhibition
[10] = qHTS primary screen hits, Table S2, negative sign = inhibitory curve
[11] = confirmatory screen, qHTS curve class, negative sign = inhibitory curve
[12] = counterscreen, qHTS curve class, negative sign = inhibitory curve
[13] = qHTS FP screen hits, Table S2, negative = inhibition
[14] = qHTS FP screen hits, Table S2, read-out: IC50
[15] = confirmatory screen, read-out: IC50 [μM] (confirmatory screen)

With `CN(CC(=O)Nc1ccc(N2CCOCC2)cc1)Cc1c(O)ccc2ccccc12.O=C(O)C(F)(F)F` [NCGC00229682-01] the “Curve Class (confirmatory screen)” value [1, 3] was 4, the “Efficacy (%) (confirmatory screen)” value [1, 4] was -47% and the “Efficacy (%)” value [1, 5] was -68%. The “Curve Class” value [1, 6] was -2.2, the IC50 [1, 7] was 39.8 µM and the “Confirm? (counterscreen)” value ([2]; Table S3, counterscreen) was “YES”. The “Curve Class (counterscreen)” value [2, 8] was -2.2, the “Efficacy (%) (counterscreen)” value [2, 9] was -57% and the IC50 ([2]; Table S3, counterscreen) was 70.8 µM.

With `O=C(O)C(F)(F)F.O=C1CCCC2=C1C(c1ccn[nH]1)N=C(Nc1nc3ccccc3o1)N2` (centres unmarked) [NCGC00229725-01] the “Curve Class (confirmatory screen)” value [1, 3] was 4, the “Efficacy (%) (confirmatory screen)” value [1, 4] was -29% and the “Efficacy (%)” value [1, 5] was -32%. For the same molecule, the “Curve Class” value [1, 10] was -2.2, the IC50 [1, 7] was 25.1 µM and the “Curve Class (counterscreen)” value [2, 8] was 4. The “Efficacy (%) (counterscreen)” value [2, 9] was -32%.

`CCNC(=O)c1ccc(-c2ccc3ncnc(N4CCOCC4)c3c2)o1.O=C(O)C(F)(F)F` [NCGC00238377-01] was tested, and the “Efficacy (%) (confirmatory screen)” value ([1]; confirmatory screen) was -45%, the “Confirm? (confirmatory screen)” value ([1]; confirmatory screen, YES/NO) was “YES” and the “Curve Class (confirmatory screen)” value [1, 11] was -1.4. The “Efficacy (%)” value [1, 5] was -23%, the “Curve Class” value [1, 6] was -2.4 and the IC50 [1, 7] was 28.2 µM. The “Efficacy (%) (counterscreen)” value ([2]; counterscreen) was -38%, the “Curve Class (counterscreen)” value [2, 12] was -2.2 and the IC50 ([2]; counterscreen) was 44.7 µM.

For `CC(O)c1ccc(-c2ccc3ncnc(N4CCOCC4)c3c2)o1.O=C(O)C(F)(F)F` (centres unmarked) [NCGC00238381-02], the “CONFIRMATORY SCREEN Efficacy (%)” value ([1]; confirmatory screen) was -26%, the “CONFIRMATORY SCREEN Curve Class” value ([1]; confirmatory screen, qHTS curve class) was 4 and the “Efficacy (%)” value [1, 13] was -19%. For the same molecule, the IC50 [1, 14] was 14.1 µM, the “COUNTERSCREEN Efficacy (%)” value ([2]; counterscreen) was -14% and the “COUNTERSCREEN Curve Class” value ([2]; counterscreen, qHTS curve class) was 4.

For `CCOC(=O)c1[nH]c2c(c1C)C(=S)CC(c1ccco1)C2.O=C(O)C(F)(F)F` (centres unmarked) [NCGC00238571-01], the “Efficacy (%) (confirmatory screen)” value ([1]; confirmatory screen) was -73%, the “Confirm? (confirmatory screen)” value ([1]; confirmatory screen, YES/NO) was “YES” and the “Curve Class (confirmatory screen)” value [1, 11] was -1.2. The IC50 [1, 15] was 35.5 µM, the “Efficacy (%)” value [1, 5] was -69% and the “Curve Class” value [1, 6] was -2.2. For the same molecule, the IC50 [1, 7] was 50.1 µM, the “Efficacy (%) (counterscreen)” value ([2]; counterscreen) was -30% and the “Curve Class (counterscreen)” value [2, 12] was -1.4. For the same molecule, the IC50 ([2]; counterscreen) was 7.1 µM.

For `O=C(O)C(F)(F)F.O=C1CCCC2=C1C(c1n[nH]cc1Cl)NC(Nc1nc3ccccc3o1)=N2` (centres unmarked) [NCGC00238624-04], the “Confirm? (confirmatory screen)” value ([1]; Table S3, confirmatory screen, YES/NO call) was “YES”, the “Curve Class (confirmatory screen)” value [1, 3] was -1.2 and the “Efficacy (%) (confirmatory screen)” value [1, 4] was -34%. For the same molecule, the IC50 ([1]; Table S3, confirmatory screen, read-out: IC50 [μM] (confirmatory screen)) was 25.1 µM, the “Curve Class (counterscreen)” value [2, 8] was -1.2 and the “Efficacy (%) (counterscreen)” value [2, 9] was -54%. For the same molecule, the IC50 ([2]; Table S3, counterscreen) was 35.5 µM.

`Cc1ccc(OCCn2c(CCNC(=O)c3ccsc3)nc3ccccc32)cc1.O=C(O)C(F)(F)F` [NCGC00238707-01] was tested, and the “Curve Class (confirmatory screen)” value [1, 3] was 3, the “Efficacy (%) (confirmatory screen)” value [1, 4] was 35% and the “Efficacy (%)” value [1, 5] was -22%. For the same molecule, the “Curve Class” value [1, 6] was -1.4, the IC50 [1, 7] was 11.2 µM and the “Efficacy (%) (counterscreen)” value [2, 9] was 109%. It also gave an IC50 ([2]; Table S3, counterscreen) of 50.1 µM.

With `CCOC(=O)c1ccc(O)c2ncc(N3CCC(C(=N)N)CC3)cc12.O=C(O)C(F)(F)F` [NCGC00241051-01] the “Efficacy (%) (confirmatory screen)” value ([1]; confirmatory screen) was -129%, the “Confirm? (confirmatory screen)” value ([1]; confirmatory screen, YES/NO) was “YES” and the “Curve Class (confirmatory screen)” value [1, 11] was -1.1. The “Efficacy (%)” value [1, 5] was -93%, the “Curve Class” value [1, 6] was -1.1 and the “Efficacy (%) (counterscreen)” value ([2]; counterscreen) was -115%. The “Curve Class (counterscreen)” value [2, 12] was -1.3 and the IC50 ([2]; counterscreen) was 7.1 µM.

In the case of `CC1(C)OB(c2ccc(O)c3ncc(N4CCNCC4)cc23)OC1(C)C.O=C(O)C(F)(F)F` [NCGC00241053-01], the “Efficacy (%) (confirmatory screen)” value ([1]; confirmatory screen) is reported as -132%, the “Confirm? (confirmatory screen)” value ([1]; confirmatory screen, YES/NO) is reported as “YES” and the “Curve Class (confirmatory screen)” value [1, 11] is reported as -2.1. For the same molecule, the IC50 [1, 15] was 31.6 µM, the “Efficacy (%)” value [1, 5] was -78% and the “Curve Class” value [1, 6] was -2.2. For the same molecule, the IC50 [1, 7] was 50.1 µM, the “Efficacy (%) (counterscreen)” value ([2]; counterscreen) was -102% and the “Curve Class (counterscreen)” value [2, 12] was -1.1. For the same molecule, the IC50 ([2]; counterscreen) was 20 µM.

`NC(=O)c1cccc(-c2cnc3c(O)ccc(C(=O)O)c3c2)c1.O=C(O)C(F)(F)F` [NCGC00241055-01] was tested, and the “Curve Class (confirmatory screen)” value [1, 3] was 4, the “Efficacy (%) (confirmatory screen)” value [1, 4] was -31% and the “Efficacy (%)” value [1, 5] was -35%. For the same molecule, the “Curve Class” value [1, 10] was -2.4, the IC50 [1, 7] was 31.6 µM and the “Confirm? (counterscreen)” value ([2]; Table S3, counterscreen) was “YES”. The “Curve Class (counterscreen)” value [2, 8] was -2.4, the “Efficacy (%) (counterscreen)” value [2, 9] was -42% and the IC50 ([2]; Table S3, counterscreen) was 35.5 µM.

`COc1cc(Nc2c(C#N)cnc3cc(OCCCN4CCN(C)CC4)c(OC)cc23)c(Cl)cc1Cl` [NCGC00241107-05] was tested, and the “Efficacy (%) (confirmatory screen)” value ([1]; confirmatory screen) was -73%, the “Confirm? (confirmatory screen)” value ([1]; confirmatory screen, YES/NO) was “YES” and the “Curve Class (confirmatory screen)” value [1, 11] was -2.2. For the same molecule, the IC50 [1, 15] was 44.7 µM, the “Efficacy (%)” value [1, 13] was -33% and the “Curve Class” value ([1]; qHTS FP screen hits, Table S2, one class per curve where COUNT > 1, negative sign = inhibitory curve) was -2.2. For the same molecule, the IC50 [1, 14] was 50.1 µM, the “Efficacy (%) (counterscreen)” value ([2]; counterscreen) was -37% and the “Curve Class (counterscreen)” value [2, 12] was -1.4. The IC50 ([2]; counterscreen) was 20 µM.
